Measurements: article PMC6594753, “Cystic fibrosis drug ivacaftor stimulates CFTR channels at picomolar concentrations” (eLife, 2019)
Values joined by “and” are separate entries in the source; they are usually repeats but may differ in a detail not shown here. Equal entries are not always repeated. Where two headings read alike, the source gives them in different places.

How the values were obtained:
[1] = Octanol/water distribution coefficient from solubilities; format: physicochemical; details: pH=7.1
[2] = molecular target: T1, WT CFTR (Homo sapiens, UniProt P13569); assay: Macroscopic current recording in excised inside-out patches from Xenopus laevis oocytes; format: biochemical; details: for EC50: 2 mM ATP, 25°C, read-out: K0.5 for current stimulation
T1 construct: expressed in transfected cells; host or cells: Xenopus laevis oocytes injected with cRNA transcribed from pGEMHE-CFTR
T1 sequence (P13569 whole entry): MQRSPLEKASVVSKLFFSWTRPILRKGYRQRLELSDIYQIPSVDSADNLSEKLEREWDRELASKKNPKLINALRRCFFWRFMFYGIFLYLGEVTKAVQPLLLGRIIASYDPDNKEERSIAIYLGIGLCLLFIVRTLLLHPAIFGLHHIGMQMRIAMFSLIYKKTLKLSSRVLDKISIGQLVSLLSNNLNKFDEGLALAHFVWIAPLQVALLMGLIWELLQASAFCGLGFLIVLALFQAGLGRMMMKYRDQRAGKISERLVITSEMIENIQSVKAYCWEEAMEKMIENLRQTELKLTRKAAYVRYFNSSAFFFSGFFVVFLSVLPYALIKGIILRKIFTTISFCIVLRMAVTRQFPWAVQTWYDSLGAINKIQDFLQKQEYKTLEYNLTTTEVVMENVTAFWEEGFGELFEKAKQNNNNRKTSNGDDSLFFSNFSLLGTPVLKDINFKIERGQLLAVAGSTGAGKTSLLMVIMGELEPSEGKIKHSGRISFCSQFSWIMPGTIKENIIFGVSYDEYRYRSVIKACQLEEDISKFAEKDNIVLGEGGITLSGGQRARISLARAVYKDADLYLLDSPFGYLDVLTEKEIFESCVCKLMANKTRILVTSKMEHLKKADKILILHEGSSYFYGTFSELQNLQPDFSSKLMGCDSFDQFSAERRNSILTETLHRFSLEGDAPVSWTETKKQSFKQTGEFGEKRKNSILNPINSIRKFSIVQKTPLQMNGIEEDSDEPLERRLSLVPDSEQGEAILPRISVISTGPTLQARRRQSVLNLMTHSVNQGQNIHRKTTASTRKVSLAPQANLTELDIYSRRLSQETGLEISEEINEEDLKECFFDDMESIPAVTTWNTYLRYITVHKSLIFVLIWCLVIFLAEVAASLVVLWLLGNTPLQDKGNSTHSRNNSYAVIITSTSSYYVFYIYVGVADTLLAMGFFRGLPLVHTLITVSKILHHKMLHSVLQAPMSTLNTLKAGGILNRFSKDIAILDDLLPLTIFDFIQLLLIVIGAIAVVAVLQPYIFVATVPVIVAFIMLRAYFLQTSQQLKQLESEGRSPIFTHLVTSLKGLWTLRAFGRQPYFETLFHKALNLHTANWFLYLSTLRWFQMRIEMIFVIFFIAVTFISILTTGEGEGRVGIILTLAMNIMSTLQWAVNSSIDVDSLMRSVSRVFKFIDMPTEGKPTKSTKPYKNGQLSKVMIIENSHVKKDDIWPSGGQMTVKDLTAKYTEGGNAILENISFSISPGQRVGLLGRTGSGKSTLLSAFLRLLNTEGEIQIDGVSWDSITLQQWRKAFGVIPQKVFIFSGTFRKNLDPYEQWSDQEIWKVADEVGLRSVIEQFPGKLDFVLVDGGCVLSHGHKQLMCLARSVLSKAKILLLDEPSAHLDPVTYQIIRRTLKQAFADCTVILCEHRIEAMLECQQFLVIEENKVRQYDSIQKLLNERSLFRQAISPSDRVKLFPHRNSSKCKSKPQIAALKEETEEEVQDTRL
Source text: We reasoned that this circumstance might explain some of the puzzling features of the drug, such as CFTR channel inactivation observed in some cases ([Cholon et al., 2014]), as well as apparent irreversibility of drug effects ([Jih and Hwang, 2013]; [Lin et al., 2016]; [Yeh et al., 2015]; [Yeh et al., 2017]; [Wang et al., 2014]; [Wang et al., 2018]). To investigate stability and reversibility of Vx-770 effects in a concentration range that can be achieved in the human body during oral drug administration, we tested the effects of our 1x saturated Vx-770 solution and its dilutions in inside-out patches excised from Xenopus laevis oocytes expressing WT or mutant human CFTR channels.
(§1) Patch pipette solution contained (in mM): 136 NMDG-Cl, 2 MgCl2, 5 HEPES, pH = 7.4 with NMDG. Bath solution contained (in mM): 134 NMDG-Cl, 2 MgCl2, 5 HEPES, 0.5 EGTA, pH = 7.1 with NMDG. MgATP (2 mM) was added from a 400 mM aqueous stock solution (pH = 7.1 with NMDG). Before each experiment 300 nM catalytic subunit of PKA (Sigma-Aldrich Kft., Budapest, Hungary) was applied for ~1 min to phosphorylate CFTR channels. Vx-770 (Selleck Chemicals) was diluted into the bath solution either from a ‘1x saturated’ aqueous stock solution (see above, concentration ~62 nM), or from a commercially obtained 10 mM stock dissolved in DMSO (Selleck Chemicals). Following patch excision the patch pipette was moved into a flow chamber, and recordings were done under continuous superfusion of the cytosolic patch surface. Solution compositions were exchanged using computer-driven electronic valves (solution exchange time constant <50 ms). After each recording day perfusion tubings were extensively washed with distilled water. Although supersaturated solutions of Vx-770 were not employed here, any perfusion tubing that had ever been in contact with a given concentration of Vx-770 was subsequently used only for solutions that contained the same, or higher, concentrations of the drug. After every 5–6 experimental days the entire perfusion system was replaced. Currents were recorded at 25°C, at a membrane potential of −40 mV, digitized at 10 kHz, Gaussian-filtered at 2 kHz, and recorded to disk (Axopatch 200B, Digidata 1322A, Pclamp9 (Molecular Devices, RRID: SCR_011323)). For display purposes, currents are shown filtered at 10 Hz and sampled at 20 Hz, and expanded single-channel traces (Figure 2b, Figure 4d) are shown filtered at 50 Hz and sampled at 250 Hz.
Vx-770 was applied after currents elicited by 2 mM ATP had stabilized. To allow for full development of its potentiator effect, Vx-770 was superfused until the current reached steady state which, for low nanomolar Vx-770, required up to 5–6 min. After full stimulation, Vx-770 was washed off for at least 5 min to allow the current to decline to a post-drug steady state. Fractional current stimulation by Vx-770 (I/Icontrol) was calculated as the mean steady current in the presence of the drug, divided by the average of the pre- and post-drug mean steady currents. Dose response curves (Figure 3c,f) were least-squares fitted to the modified Hill equation I/Icontrol=(K0.5^n+(Imax/Icontrol)[Vx-770]^n)/(K0.5^n+[Vx-770]^n), with Imax/Icontrol, K0.5, and n as free parameters.
To obtain apparent deactivation rates, current decay time courses following Vx-770 removal were fitted by single exponentials using least squares, and deactivation rates defined as the inverse of the decay time constant (1/τoff; Figure 4c). To obtain apparent activation rates, current activation time courses upon Vx-770 addition were fitted to an empirical three-step kinetic scheme S1→S2→S3→S4. Compound states S1-S4 in this scheme are not interpreted as channel conformational states, but rather as states of the entire system (aqueous solution +patch membrane leaflets + channels), and could reflect various stages of drug distribution among those compartments. […]

[3] = molecular target: T1, WT CFTR; assay: Single-channel recording in excised inside-out patches, kinetic analysis of microscopic patches; format: biochemical
Experimental: as §1
Segments of current recording originating from 1 to 7 active channels were digitally filtered at 50 Hz, and idealized by half-amplitude threshold crossing. Steady-state open probabilities in 2 mM ATP, before or during application of Vx-770 or after its removal (Figure 2c), were calculated from the events lists as the time-average of the fraction of open channels. A closed-open-blocked (C-O-B) kinetic scheme, which separates brief (~10 ms) flickery closures (to state B) from long (~1 s) interburst closures (to state C), was fitted by maximum likelihood to the set of dwell-time histograms for all conductance levels, to obtain microscopic transition rates rCO, rOC, rOB, and rBO, while accounting for a fixed dead time of 6 ms ([Csanády, 2000]). The software is freely available upon request. Mean burst (τb) and interburst (τib) durations were calculated as τb=(1/rOC)(1 + rOB/rBO) and τib=1/rCO, and channel opening and closing rates (Figure 2c) defined as 1/τib and 1/τb, respectively. […]

[4] = diluted from 10 mM DMSO-based stock
[5] = single channel, 0.05x saturated (~3 nM) Vx-770

For `CC(C)(C)c1cc(C(C)(C)C)c(NC(=O)c2c[nH]c3ccccc3c2=O)cc1O` [Vx-770, ivacaftor], the logD ([1]; octanol/water) was 4.8, the “octanol/water distribution coefficient Doct/wat” value [1] was 62580 and ~ 60000 and the “apparent activation time constant τ*” value ([2]; 0.01x saturated Vx-770 (assigned by b20: slower at low concentration), Figure 4a) was 155 s. The current stimulation ([2]; 1x saturated (~62 nM) Vx-770, 2 mM ATP, prephosphorylated channels, -40 mV) was ~ 4 fold, the “time constant τ of current decline following drug removal” value ([2]; after 1x saturated (~62 nM) Vx-770, Figure 2a) was 145 s and the “time constant τ of current decline following drug removal” value ([2]; after 1x saturated Vx-770) was ~ 2 min. The Hill coefficient [2, 4] was 1.32±0.47, the EC50 [2, 4] was 0.49 ± 0.15 nM and the Hill coefficient ([2]; diluted from 1x saturated aqueous stock) was 1.31±0.65. For the same molecule, the EC50 ([2]; diluted from 1x saturated aqueous stock, assuming 62 nM) was 0.47 ± 0.12 nM, the “delay of onset of current stimulation” value ([2]; subnanomolar/low nanomolar aqueous drug concentrations) was at most 1 min and the “reversibility of Vx-770 effects” value ([2]; upon removal of 1x saturated Vx-770) was “full reversibility”. For the same molecule, the “apparent K0.5 lower (affinity higher) than previously reported” value ([2]; versus ~300 nM reported) was ~ 600 fold and 600 fold, the “stimulation of open probability” value ([3]; 0.05x saturated (~3 nM) Vx-770 (20-fold dilution of 1x stock), 2 mM ATP) was ~ 4 fold and the “reversibility of effects on channel gating” value ([3]; following washout of 0.05x saturated Vx-770) was “fully reversible”. The “time of switch back to low-activity gating after drug removal” value [3, 5] was ~ 5 min and the “time of switch from low- to high-activity gating after initiation of drug exposure” value [3, 5] was ~ 3 min.
